Results published in PMC5304334, “Antifouling potential of Nature-inspired sulfated compounds” (Scientific Reports, 2017).
“Also recorded” adds a separate entry of the source. Read-outs that look alike come from different tables or passages of the source.

Experiments:
[1] = Seawater stability under AF assay conditions (HPLC-DAD); type: physicochemical; conditions: 250 μM in filtered seawater, 15 h, 18 °C
Protocol: High performance liquid chromatography with Diode-Array Detection (HPLC-DAD) analyses were carried out on a System SMI Pump Series II (Gloucester, UK) equipped with a Rheodyne 7125 injector fitted with a 20 μL loop, a TSP-UV6000LP detector, and a Chromquest for Windows NT integrator and using a C-18 Nucleosil column (5 μm, 250 × 4.6 mm I.D.), from Macherey-Nagel (Düren, Germany); acetonitrile was of HPLC grade from Merck. HPLC ultrapure water was generated by a Milli-Q system (Millipore, Bedford, MA, USA). The mobile phase used was water with tetrabutylammonium bromide (TBAB, 25 mM) and acetonitrile (38:62) at a constant flow rate of 1.0 mL.min^−1. The mobile phase was filtered ([…]) and degassed for 15 min in an ultrasonic bath before use.
The seawater stability of the three most promising compounds 2, 6, and 12 in the time period (15 h) and temperature (18 °C) of the AF assay was evaluated by HPLC-DAD. Compounds were analyzed at 250 μM (final concentration) in filtered seawater ([…]). Incubations were performed in glass HPLC vials and three independent samples plus respective blank (filtered seawater) and controls (time zero - freshly prepared solutions of compounds) were analyzed.

[2] = target: T1, Electrophorus electric acetylcholinesterase Type V-S (Electrophorus electricus, UniProt O42275); assay: In vitro acetylcholinesterase activity (Ellman); type: biochemical; conditions: 50 μM compound
T1 construct: purchased SIGMA C2888
T1 sequence (O42275 24-633): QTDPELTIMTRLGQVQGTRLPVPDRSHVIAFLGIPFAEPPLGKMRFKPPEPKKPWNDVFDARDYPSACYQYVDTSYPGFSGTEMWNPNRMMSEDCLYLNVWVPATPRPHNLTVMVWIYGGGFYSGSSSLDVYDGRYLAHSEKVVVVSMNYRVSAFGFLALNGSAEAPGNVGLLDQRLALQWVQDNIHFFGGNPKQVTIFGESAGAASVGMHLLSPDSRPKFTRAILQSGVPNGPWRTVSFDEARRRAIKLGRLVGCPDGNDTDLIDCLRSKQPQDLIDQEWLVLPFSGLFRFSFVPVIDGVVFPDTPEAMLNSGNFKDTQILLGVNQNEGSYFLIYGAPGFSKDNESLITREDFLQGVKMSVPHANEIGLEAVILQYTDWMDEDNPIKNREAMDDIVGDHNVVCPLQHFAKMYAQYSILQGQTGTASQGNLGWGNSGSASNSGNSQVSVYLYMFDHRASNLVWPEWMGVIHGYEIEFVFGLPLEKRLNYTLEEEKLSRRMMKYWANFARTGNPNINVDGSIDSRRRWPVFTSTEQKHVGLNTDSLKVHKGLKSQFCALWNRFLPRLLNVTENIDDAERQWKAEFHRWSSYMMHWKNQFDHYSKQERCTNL
Protocol: The potential of compounds 2, 6 and 12 to inhibit acetylcholinesterases activity was evaluated using Electrophorus electric acetylcholinesterase Type V-S (SIGMA C2888, E.C. 3.1.1.7), according to Ellman et al.[47] with some modifications. Briefly, reaction solution containing phosphate buffer 1 M pH 7.2, dithiobisnitrobenzoate (DTNB) 10 mM (acid dithiobisnitrobenzoate and sodium hydrogen carbonate in phosphate buffer) and […] 0.075 M was added to pure acetylcholinesterase enzyme (0.25 U/mL) and each test sulfated compound (final concentration of 50 μM) in quadruplicate. The optical density was measured at 412 nm in a microplate reader during 5 min at 25 °C. A negative control (B) with ultra-pure water and a positive control (C+) with 20 mM eserine also included.

[3] = test system: Agaricus bisporus tyrosinase; assay: In vitro tyrosinase inhibition assay; type: biochemical; conditions: 50 μM compound
Protocol: Tyrosinase inhibition assays were conducted using Agaricus bisporus tyrosinase (EC 1.14.18.1) according to Adhikari et al.[50] with slight modifications. The enzymatic reaction follows the catalytic conversion of L-Dopa to dopaquinone and the formation of dopachrome by measuring the absorvance at 475 nm. Briefly, tyrosinase (25 U/mL) is added to 50 mM fosfate buffer pH 6.5 and the sulfated compound at 50 μM. The enzymatic activity was triggered by the addition of L-dopa (25 mM). Kojic acid was included as positive control and ultra-pure water as negative control.

[4] = Water solubility (statement in discussion); type: physicochemical
[5] = test system: Mytilus galloprovincialis plantigrades; assay: Anti-settlement bioassay with mussel plantigrades (effectiveness and mortality); type: in vivo; conditions: for Anti-settlement activity in screening (result in words): 250 and 50 μM, p < 0.05 Dunnett; for Anti-settlement activity in screening (result in words) / Concentration range with significant anti-settlement activity: versus negative control; for EC50 / EC50, minimum concentration that inhibited 50% of larval settlement: plantigrades, 18 °C; for EC50: read-out: EC50, minimum concentration that inhibited 50% of larval settlement; for Concentration range with significant anti-settlement activity: concentration-response 1.56–500 μM
Protocol: (§1) M. galloprovincialis juvenile (0.5 cm shell length approximately) aggregates were collected from mussel beds from the intertidal rocky shore, during low neap tides at Memória beach, Matosinhos, Portugal (41°13′59″N; 8°43′28″W), and immediately transported to the laboratory. M. galloprovincialis plantigrade post-larvae (0.5–2 mm) were screened among the small mussel aggregates in a binocular magnifier (Olympus SZX2-ILLT), gently washed with filtered seawater to remove organic debris and sand particles and isolated in a petri dish with filtered seawater immediately before the bioassays.
(§2) For the screening bioassay, competent M. galloprovincialis plantigrades (showing exploring behavior, ie, moving their foot searching for the appropriate substrate to settle) were selected and exposed to the series of sulfated compounds 1–13 at two concentrations (250 and 50 μM) in 24-well microplates for 15 h, at 18 ± 1 °C, in the darkness. Bioassays time frame was selected based on preliminary bioassays to ensure that the response measured is reflecting the compounds effect. Test solutions were prepared in filtered seawater (previously treated by UV light, and carbon filters and mechanically filtered with […] filter before use) and obtained by dilution of the compounds stock solutions (50 mM) in ultra-pure water. Four well replicates were used per condition with five plantigrades per well and 2.5 mL of test solution. A negative control, with ultra-pure water was included in all bioassays, as well as a positive control with 5 μM CuSO4 (a potent AF agent). At the end of the exposure period, the anti-settlement activity was determined by the presence/absence of byssal threads produced by each individual efficiently attached for all the conditions tested.
(§3) Data from the anti-settlement and antibacterial screenings were analyzed using a one-way analysis of variance (ANOVA) followed by a Dunnett test against the control (p < 0.05). Semi-maximum response concentration that inhibited 50% larval settlement (EC50), semi-maximum response concentration that inhibited 20% bacterial growth (EC20) and the median lethal dose (LC50) for each bioactive compound were assessed using Probit regression analysis. Pearson Goodness-of-fit (Chi-Square) significance was considered at p < 0.05 for all analyses, and 95% lower and upper confidence limits [95% LCL; UCL] were presented. Therapeutic ratio (LC50/EC50) was used to evaluate the effectiveness vs toxicity of compounds[31][53][54]. The software IBM SPSS Statistics 21 was used for statistical analysis.

[6] = as above; type: in vivo, Mytilus galloprovincialis; conditions: Mytilus galloprovincialis, in vivo, other: immersion in test solution in filtered seawater; mortality of plantigrades, 15 h, up to 500 μM; read-out: LC50, the median lethal dose
Protocol: as §1, §2, §3

[7] = test system: Vibrio fischeri (NRRL-B-11177); assay: Luminescent Vibrio fischeri ecotoxicity assay (ISO11348); type: cell-based; conditions: for Inhibition of light radiation emitted by V. fischeri: 15 min or 30 min contact, up to 1000 mg/L; for EC50: Aliivibrio fischeri
Protocol: (§4) After 5, 15 and 30 min of exposure, the light emitted as a by-product of Vibrio fischeri cellular respiration was measured at 490 nm. Any inhibition of cellular activity results in a decreased rate of respiration and a corresponding decrease in the rate of luminescence. The decrease of bacterial luminescence measured after 5, 15 or 30 min of exposition was used as test endpoint. Luminescence was measured using a LUMIStox photometer from DR LANGE, after a contact time of 15 min and 30 min at 15 ± 1 °C, taking into account a correction factor, fk, which is a measure of intensity change of control samples during the exposure time.
(§5) The pH of all samples was within the interval 6.0–8.5.

[8] = as above; type: cell-based; conditions: Vibrio fischeri; read-out: LC50 Vibrio fischeri
Protocol: as §4, §5

Artemia salina nauplii = Artemia salina nauplii lethality (ecotoxicity) test; type: in vivo; conditions: for Mortality of Artemia salina: 250 μM; for Mortality of A. salina nauplii / Toxicity to A. salina: 25, 50, and 250 μM, 48 h; for Toxicity to A. salina: versus negative control
Protocol: Selected sulfated compounds with AF potential 2, 6, and 12 were tested for general toxicity to nontarget species using the brine shrimp (Artemia salina) nauplii lethality test[51]. Briefly, A. salina eggs were allowed to hatch in nutrient–enriched seawater as nauplii for approximately 48 h at 25 °C. Toxicity tests were performed in the darkness in 96-wells microplates with eight replicates per condition and 15–20 nauplii per well. Serial diluted test solutions of the most promising sulfated AF compounds (25, 50, and 250 μM) were prepared in filtered seawater. K2Cr2O7 (13.6 μM) was included as positive control and ultra-pure water as negative control. Percentage of mortality was determined at 48 h of exposure.

[9] = Mytilus galloprovincialis, 15 h, 15 h, 1.56–500 μM
[10] = Mytilus galloprovincialis, 15 h, 15 h
[11] = NRRLB11177, 0.25 h, V. fischeri luminescence, 15 min contact, read-out: EC50 15min
[12] = NRRLB11177, 0.5 h, V. fischeri luminescence, 30 min contact, read-out: EC50 30min
[13] = V. fischeri luminescence, 30 min contact

## O=C(O)c1cc(OS(=O)(=O)O)c(OS(=O)(=O)O)c(OS(=O)(=O)O)c1 [Compound 12, gallic acid persulfate]
[1]
  Concentration detected relative to the initial one (seawater stability): at least 95%
[2]
  Acetylcholinesterase activity inhibition: not inhibited
[3]
  Tyrosinase activity inhibition: not inhibited
[4]
  Water solubility: highly water soluble
[5]; 15 h
  Anti-settlement activity in screening (result in words): significant anti-settlement responses at 50 μM
  EC50, minimum concentration that inhibited 50% of larval settlement: 8.4 µg/mL
[5]; [9]
  EC50: 17.7 µM
[5]; [10]
  EC50: 8.95 µg/mL
[5]
  Concentration range with significant anti-settlement activity: 12.5 to 500 µM
[6]
  LC50 at 15 h: > 500 µM
[7]
  Inhibition of light radiation emitted by V. fischeri: no inhibition of light radiation emitted was found; also recorded: lack of light radiation inhibition
[7]; [11]
  EC50: > 1000 µg/mL
[7]; [12]
  EC50: > 1000 µg/mL
[8]
  CC50: > 1000 µg/mL
Artemia salina nauplii
  Mortality of Artemia salina: < 10%
  Mortality of A. salina nauplii: less than 10%
  Toxicity to A. salina: no toxicity

## O=C(/C=C/c1ccc(OS(=O)(=O)O)c(OS(=O)(=O)O)c1)O[C@@H]1C[C@](OS(=O)(=O)O)(C(=O)O)C[C@@H](OS(=O)(=O)O)[C@H]1OS(=O)(=O)O [Compound 13, chlorogenic acid persulfate]
[5]; 15 h
  Anti-settlement activity in screening (result in words): much less potent than compound 12

## C[C@@H]1O[C@@H](OC[C@H]2O[C@@H](Oc3c(-c4ccc(O)c(O)c4)oc4cc(O)cc(O)c4c3=O)[C@H](O)[C@@H](O)[C@@H]2O)[C@H](O)[C@H](O)[C@H]1O [Compound 14, rutin, reference compound]
[5]; 15 h
  Anti-settlement activity in screening (result in words): did not show significant anti-settlement activity; also recorded: not active

## N#Cc1c(-c2ccc(Cl)cc2)[nH]c(C(F)(F)F)c1Br [ECONEA®]
[5]; all tested concentrations up to 500 μM
  Mortality/toxicity to target species plantigrades: showed some toxicity at the higher concentrations tested
[5]; mortality of plantigrades, 15 h, up to 500 μM, read-out: LC50, the median lethal dose
  LC50: 108 µM
[5]; 15 h
  EC50, minimum concentration that inhibited 50% of larval settlement: 1.40 µg/mL
[5]; 15 h, 1.56–500 μM
  EC50: 4.01 µM

## [K+].[K+].[O]=[Cr](=[O])([O-])[O][Cr](=[O])(=[O])[O-] [K2Cr2O7, Potassium dichromate, reference compound]
[7]; [13]
  EC50 30min: 5.67 µg/mL
  EC80 30min: 16.73 µg/mL

## O=c1c2ccc(O[C@@H]3O[C@H](COS(=O)(=O)O)[C@@H](OS(=O)(=O)O)[C@H](OS(=O)(=O)O)[C@H]3OS(=O)(=O)O)cc2oc2cc(O[C@@H]3O[C@H](COS(=O)(=O)O)[C@@H](OS(=O)(=O)O)[C@H](OS(=O)(=O)O)[C@H]3OS(=O)(=O)O)ccc12 [Compound 6]
[1]
  Concentration detected relative to the initial one (seawater stability): at least 95%
[2]
  Acetylcholinesterase activity inhibition: not inhibited
[3]
  Tyrosinase activity inhibition: not inhibited
[4]
  Water solubility: highly water soluble
[5]; 15 h
  Anti-settlement activity in screening (result in words): significant anti-settlement responses at 50 μM; also recorded: highly active
[5]; [9]
  EC50: 23.2 µM
[5]; [10]
  EC50: 31.7 µg/mL
[5]
  Concentration range with significant anti-settlement activity: 25 to 500 µM
[6]
  LC50 at 15 h: > 500 µM
[7]
  Inhibition of light radiation emitted by V. fischeri: no inhibition of light radiation emitted was found; also recorded: lack of light radiation inhibition
[7]; [11]
  EC50: > 1000 µg/mL
[7]; [12]
  EC50: > 1000 µg/mL
[8]
  CC50: > 1000 µg/mL
Artemia salina nauplii
  Mortality of Artemia salina: < 10%
  Mortality of A. salina nauplii: less than 10%
  Toxicity to A. salina: no toxicity

## C[C@@H]1O[C@@H](OC[C@H]2O[C@@H](Oc3c(-c4ccc(OCCOS(=O)(=O)O)c(OCCOS(=O)(=O)O)c4)oc4cc(OCCOS(=O)(=O)O)cc(O)c4c3=O)[C@H](OS(=O)(=O)O)[C@@H](OS(=O)(=O)O)[C@@H]2OS(=O)(=O)O)[C@H](OS(=O)(=O)O)[C@H](OS(=O)(=O)O)[C@H]1OS(=O)(=O)O [Compound 3, 3″,4″-bis(2-sulfateethoxy)-7-(2-sulfateethoxy)-rutin 2″,2″′,3′,3″′,4′,4″′,7-sulfate]
[5]; 15 h
  Anti-settlement activity in screening (result in words): did not show notable activity

## O=C(O)c1cc(O)c(O)c(O)c1 [Compound 15, gallic acid, reference compound]
[5]; 15 h
  Anti-settlement activity in screening (result in words): did not show significant anti-settlement activity; also recorded: not active

## O=c1c2ccc(OCc3cn([C@@H]4O[C@H](COS(=O)(=O)O)[C@H](OS(=O)(=O)O)[C@H](OS(=O)(=O)O)[C@H]4OS(=O)(=O)O)nn3)cc2oc2cc(OCc3cn([C@@H]4O[C@H](COS(=O)(=O)O)[C@H](OS(=O)(=O)O)[C@H](OS(=O)(=O)O)[C@H]4OS(=O)(=O)O)nn3)ccc12 [Compound 7, 3,6-bis(1-(1-(β-D-galatopyranosyl)-1H-1,2,3-triazole-4-yl)methoxy)xanthone persulfate]
[5]; 15 h
  Anti-settlement activity in screening (result in words): not active
